These are literature values, as cited in patent publication EP4223883A1, “PROCESS FOR PRODUCING TRYPTAMINES” (Infinit Biosystems, priority 2022, dated 2023).

SMILES strings stand for the structures.

In data set [1] the target is T1, PSI K, 4-hydroxytryptamine kinase, Psilocybe cubensis, Uniprot: P0DPA8 (Psilocybe cubensis, UniProt P0DPA8).
T1 sequence (P0DPA8 1-362): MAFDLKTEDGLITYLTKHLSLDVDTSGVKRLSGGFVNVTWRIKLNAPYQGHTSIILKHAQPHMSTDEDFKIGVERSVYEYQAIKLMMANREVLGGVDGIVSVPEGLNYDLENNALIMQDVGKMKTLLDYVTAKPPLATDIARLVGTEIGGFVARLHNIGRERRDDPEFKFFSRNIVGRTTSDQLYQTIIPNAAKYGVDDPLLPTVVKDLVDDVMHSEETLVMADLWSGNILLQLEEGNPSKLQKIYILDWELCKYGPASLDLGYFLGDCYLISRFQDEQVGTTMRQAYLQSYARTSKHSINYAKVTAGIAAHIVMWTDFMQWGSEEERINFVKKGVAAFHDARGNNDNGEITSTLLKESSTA
As to conditions: substrate taken from the text, not given; Km of the cofactor (ATP) considered equal.

Data set [2] has as its system PSI M, N-methyltransferase, Psilocybe cubensis, Uniprot: P0DPA9.
Data set [3] has as its system T2, PSI H, Tryptamine 4-monooxygenase, Psilocybe cubensis, Uniprot: A0A286LF02.
T2 sequence (A0A286LF02 20-507): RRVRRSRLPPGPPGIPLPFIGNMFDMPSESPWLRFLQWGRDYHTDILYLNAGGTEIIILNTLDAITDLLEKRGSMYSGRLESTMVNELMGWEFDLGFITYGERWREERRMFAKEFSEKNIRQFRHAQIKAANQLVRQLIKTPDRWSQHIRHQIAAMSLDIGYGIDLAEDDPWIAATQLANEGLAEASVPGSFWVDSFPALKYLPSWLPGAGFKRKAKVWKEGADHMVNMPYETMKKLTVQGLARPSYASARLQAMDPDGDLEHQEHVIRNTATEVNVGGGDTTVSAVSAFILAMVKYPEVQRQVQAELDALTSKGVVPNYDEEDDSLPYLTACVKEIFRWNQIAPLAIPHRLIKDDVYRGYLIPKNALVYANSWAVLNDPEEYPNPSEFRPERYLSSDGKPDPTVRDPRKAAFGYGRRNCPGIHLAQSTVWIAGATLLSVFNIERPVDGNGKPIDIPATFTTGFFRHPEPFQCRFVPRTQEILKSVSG
The note with it: substrate taken from the text, not given; Km of the cofactor (NADPH) considered equal.

In the case of `NCCc1c[nH]c2cccc(O)c12` [4-hydroxytryptamine], the Km (in general, the concentration of substrate that gives half-maximal velocity) in data set [1] is 80 µM.
As to `NCCc1c[nH]c2cccc(OP(=O)(O)O)c12` [norbaeocystin], the Km in data set [2] is 165 µM.
In the case of `NCCc1c[nH]c2ccccc12` [tryptamine, Tryptamine], the Km in data set [3] was 220 µM.
